# Source: patent US8158389B2, “Products and methods for in vivo secretion of monatin” (priority 2005, dated 2012)
# Marks after values point to notes of the source that are not given here.
# Columns and labels:
# [1] = tested on: C. glutamicum ATCC 13032 transformed with aspCProA pEKEX-2; assay: Monatin efflux with biotin and ampicillin treatments; format: cell-based, Corynebacterium glutamicum
# Protocol: C. glutamicum ATCC 13032 strains transformed with aspCProA pEKEX-2 were grown overnight in LB medium supplemented with 50 μg/mL kanamycin incubated at 30° C. and shaking at 250 rpm. […] Microbiol 151:342-347, (1989). […] The pH was adjusted to 7.0.
# Additions of 1.0 g L-tryptophan and 5 g/L sodium pyruvate and ampicillin (either 0 or 10 μg/ml) were made 3 hours following induction.
# [2] = tested on: C. glutamicum 13032::aspC/proA/pEKEX2-2; assay: Monatin excretion using ethambutol; format: cell-based, Corynebacterium glutamicum
# Protocol: (§1) Microbiol 151:342-347, (1989). […] The pH was adjusted to 7.0.
# Conditions for the treatments included 30° C. throughout the experiment and 250 rpm agitation. Ethambutol (10 mg/L) was added either prior to inoculation of shake flasks or at the first feeding time when tryptophan and pyruvate were added. […] Additions of 1 g L-tryptophan, 10 g/L sodium pyruvate, 0.04 mM pyridoxal-5′-phosphate (“PLP”), were made 3 hours following induction.
# [3] = tested on: E. coli MG1655 ΔAcrAB 6-16::aspCproAproNde; assay: AcrAB k.o. validation: growth (OD 600 nm) with novobiocin / sodium decanoate, knockout strain; format: cell-based, Escherichia coli
# Protocol: (§2) Single chloramphenicol-resistant colonies were purified by restreaking on appropriate selective media and single colonies were tested by PCR as previously described for the BW25113 knockout strains, to verify the presence of the emrB and acrAB knockouts. The effects of the emrB and acrAB knockouts on the EmrAB and AcrAB transporter systems respectively were determined by assessing the phenotype of the transport mutants using appropriate antibiotics and comparison to wild type control microorganisms as shown in Table 3.1 and Table 3.2 below.
# [4] = tested on: E. coli MG1655::aspCproApProNde (control); assay: AcrAB k.o. validation: growth (OD 600 nm) with novobiocin / sodium decanoate, control strain; format: cell-based, Escherichia coli
# Protocol: as §2
# [5] = tested on: C. glutamicum 13032 transformed with aspCProA pEKEX-2; assay: Monatin efflux with increased temperature and sodium pyruvate; format: cell-based, Corynebacterium glutamicum
# Protocol: as §1
# Conditions for treatments included 30° or 35° C. throughout the experiment and 250 rpm agitation. At an OD600 nm, between 0.45-0.51, induction of the monatin operon genes was initiated. […] Additions of 1.0 g L-tryptophan, 10 or 15 g/L sodium pyruvate, 0.04 mM pyridoxal-5′-phosphate (“PLP”), were made 3 hours and also at 24 hours following induction. A total of 20 or 30 g/L sodium pyruvate was added to each flask by adding 10 or 15 g/l at each of the two feeding times.
# [6] = Ampicillin 10 μg/mL, Biotin 1 μg/L
# [7] = Ampicillin 10 μg/mL, Biotin 200 μg/L
# [8] = Biotin 200 μg/L, Ampicillin 0 μg/mL
# [9] = ethambutol 10 mg/L with 0.2% Tween 20 and 10 μg/ml ampicillin, n = 2
# [10] = ethambutol 10 mg/L, another 10 g/L sodium pyruvate at 24 hours, n = 2
# [11] = 40 or 80 ppm novobiocin, no sodium decanoate
# [12] = novobiocin 40 ppm, sodium decanoate 0 mM
# [13] = novobiocin 40 ppm, sodium decanoate 2.5 mM
# [14] = novobiocin 80 ppm, sodium decanoate 0 mM
# [15] = novobiocin 80 ppm, sodium decanoate 2.5 mM
structure (smiles),measurement,setting,value
"CC1(C)S[C@@H]2[C@H](NC(=O)[C@H](N)c3ccccc3)C(=O)N2[C@H]1C(=O)O [Ampicillin, ampicillin]","Monatin/dry cell weight, 24 hours",[1]; [6],16.2 mg/g
same,"Monatin/dry cell weight, 48 hours",[1]; [6],13.5 mg/g
same,"Monatin/dry cell weight, 24 hours",[1]; [7],12.1 mg/g
same,"Monatin/dry cell weight, 48 hours",[1]; [7],9.3 mg/g
"O=C(O)CCCC[C@@H]1SC[C@@H]2NC(=O)N[C@@H]21 [Biotin, biotin]","Monatin/dry cell weight, 48 hours","[1]; Biotin 1 μg/L, Ampicillin 0 μg/mL",4.5 mg/g
same,"Monatin/dry cell weight, 24 hours","[1]; Biotin 1 μg/L, Ampicillin 0 μg/mL, n = 1",1.9* mg/g
same,"Monatin/dry cell weight, 24 hours",[1]; [8],0.9 mg/g
same,"Monatin/dry cell weight, 48 hours",[1]; [8],1.7 mg/g
CC[C@@H](CO)NCCN[C@@H](CC)CO [ethambutol],greater monatin excreted per dry cell weight,"[2]; Tween/ampicillin treatment with 10 mg/L ethambutol vs same treatment without ethambutol, 48 hours",12 fold
same,"Monatin/dry cell weight, 24 hours",[2]; [9],6.94 mg/g
same,"Monatin/dry cell weight, 30 hours",[2]; [9],8.80 mg/g
same,"Monatin/dry cell weight, 48 hours",[2]; [9],9.14 mg/g
same,"Monatin/dry cell weight, 24 hours",[2]; [10],1.04 mg/g
same,"Monatin/dry cell weight, 31 hours",[2]; [10],1.53 mg/g
same,"Monatin/dry cell weight, 48 hours",[2]; [10],2.19 mg/g
same,"Monatin/dry cell weight, 24 hours","[2]; ethambutol 10 mg/L, n = 2",1.16 mg/g
same,"Monatin/dry cell weight, 31 hours","[2]; ethambutol 10 mg/L, n = 2",1.15 mg/g
same,"Monatin/dry cell weight, 48 hours","[2]; ethambutol 10 mg/L, n = 2",1.06 mg/g
CO[C@@H]1[C@@H](OC(N)=O)[C@@H](O)[C@H](Oc2ccc3c(O)c(NC(=O)c4ccc(O)c(CC=C(C)C)c4)c(=O)oc3c2C)OC1(C)C [novobiocin],growth,[3]; [11],growth is completely inhibited
same,OD 600 nm at 19 hours,[3]; [12],0.007
same,OD 600 nm at 19 hours,[3]; [13],0.008
same,OD 600 nm at 19 hours,[3]; [14],0.006
same,OD 600 nm at 19 hours,[3]; [15],0.008
same,growth,"[4]; 0, 40 or 80 ppm novobiocin, in the presence of sodium decanoate",grew to similar optical densities
same,growth,[4]; [11],only slight inhibition of growth
same,OD 600 nm at 19 hours,[4]; [12],1.407
same,OD 600 nm at 19 hours,[4]; [13],1.395
same,OD 600 nm at 19 hours,[4]; [14],0.793
same,OD 600 nm at 19 hours,[4]; [15],1.374
"CC(=O)C(=O)[O-].[Na+] [pyruvate, sodium pyruvate]","Monatin/dry cell weight, 24 hours","[5]; 30° C., 20 g/L pyruvate",0.2 mg/g
same,"Monatin/dry cell weight, 31 hours","[5]; 30° C., 20 g/L pyruvate",2.1 mg/g
same,"Monatin/dry cell weight, 48 hours","[5]; 30° C., 20 g/L pyruvate",2.7 mg/g
same,"Monatin/dry cell weight, 54 hours","[5]; 30° C., 20 g/L pyruvate",2.7 mg/g
same,"Monatin/dry cell weight, 24 hours","[5]; 30° C., 30 g/L pyruvate",0.3 mg/g
same,"Monatin/dry cell weight, 31 hours","[5]; 30° C., 30 g/L pyruvate",1.8 mg/g
same,"Monatin/dry cell weight, 48 hours","[5]; 30° C., 30 g/L pyruvate",4.3 mg/g
same,"Monatin/dry cell weight, 54 hours","[5]; 30° C., 30 g/L pyruvate",4.7 mg/g
same,"Monatin/dry cell weight, 24 hours","[5]; 35° C., 20 g/L pyruvate",5.4 mg/g
same,"Monatin/dry cell weight, 31 hours","[5]; 35° C., 20 g/L pyruvate",14.7 mg/g
same,"Monatin/dry cell weight, 48 hours","[5]; 35° C., 20 g/L pyruvate",23.5 mg/g
same,"Monatin/dry cell weight, 54 hours","[5]; 35° C., 20 g/L pyruvate",23.8 mg/g
same,"Monatin/dry cell weight, 24 hours","[5]; 35° C., 30 g/L pyruvate",5.8 mg/g
same,"Monatin/dry cell weight, 31 hours","[5]; 35° C., 30 g/L pyruvate",18.1 mg/g
same,"Monatin/dry cell weight, 48 hours","[5]; 35° C., 30 g/L pyruvate",29.4 mg/g
same,"Monatin/dry cell weight, 54 hours","[5]; 35° C., 30 g/L pyruvate",35.2 mg/g
